# Source: article PMC9497135, “Structure-Based Study to Overcome Cross-Reactivity of Novel Androgen Receptor Inhibitors” (Cells, 2022)
# How the values were obtained:
# [1] = target: T1, Androgen Receptor ABS (Rattus norvegicus, UniProt P15207); assay: Androgen (DHT) displacement, Polar Screen Androgen Receptor Competitor Green Assay Kit; format: binding; details: fluorescence polarization kit
# T1 construct: purchased
# T1 sequence (P15207 647-902 limits assumed): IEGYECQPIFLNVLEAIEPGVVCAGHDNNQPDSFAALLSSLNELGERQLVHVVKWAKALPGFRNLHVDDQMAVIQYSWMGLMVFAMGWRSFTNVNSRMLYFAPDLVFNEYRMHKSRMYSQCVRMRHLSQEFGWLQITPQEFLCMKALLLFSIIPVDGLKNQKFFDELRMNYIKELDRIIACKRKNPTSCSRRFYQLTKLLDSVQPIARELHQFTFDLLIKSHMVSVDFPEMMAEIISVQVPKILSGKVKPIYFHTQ
# Description: Androgen displacement was assessed with the Polar Screen Androgen Receptor Competitor Green Assay Kit as per the instructions of the manufacturer.
# [2] = target: T2, wild type AR LBD (Homo sapiens, UniProt P10275); assay: Biolayer interferometry (BLI), wild type LBD; format: binding
# T2 construct: made in house; host or cells: E. coli BL21-DE3 co-transformed with pBirACm
# T2 sequence (P10275 669-900 limits assumed): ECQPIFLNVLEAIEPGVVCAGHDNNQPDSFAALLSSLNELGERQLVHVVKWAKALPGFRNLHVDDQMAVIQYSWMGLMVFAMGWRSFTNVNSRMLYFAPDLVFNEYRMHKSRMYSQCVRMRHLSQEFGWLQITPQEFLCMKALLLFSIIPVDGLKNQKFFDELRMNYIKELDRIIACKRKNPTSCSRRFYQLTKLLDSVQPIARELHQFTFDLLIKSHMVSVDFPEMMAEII
# Description: The direct reversible interaction between small molecules and the AR was quantified by BLI using OctetRED (ForteBio, Fremont, CA, USA). The wild type and T878A-LDB in fusion with an N-terminal (His)6-avidin ([…]) tag were expressed in E. coli BL21-DE3 cells co-transformed with pBirACm plasmid (Avidity), which expresses a biotin ligase leading to the biotynilation of the avidin tag on the LBD. Cells were grown in LB media at 37 °C to an OD600nm = 0.5 and then induced with 0.5 mM isopropyl-β-D-thiogalactoside. A measure of 20 µM of dihydrotestosterone (DHT) and 0.15 mM biotin were added and the cells were incubated at 16 °C for 18 to 20 h. Cells were then resuspended and lysed in buffer containing 500 mM Li2SO4, 50mM HEPES pH7.2, 10% Glycerol, 0.1% Octyl-beta-Glucoside, 20 µM of DHT, 5 mM β-mercaptoethanol, 10 mM imidazole and 0.1 mM phenylmethanesulfonyl fluoride. […] After an overnight dialysis against 150 mM Li2SO4, 50 mM HEPES pH7.2, 10% Glycerol, 0.1% Octyl-beta-Glucoside, 20 µM of DHT and 0.2 mM tris(2-carboxyethyl)phosphine, purified proteins at 50 µg/mL were bound to the super-streptavidin sensors overnight at 4 °C. The assay was performed at 20 °C in the dialysis buffer supplemented with 5% dimethyl sulfoxide (DMSO) which was also used as our reference measurement.
# [3] = target: T3, T878A-AR mutant (Homo sapiens, UniProt P10275, T878A); assay: Luciferase reporter assay, PC3 cells transfected with T878A-AR; format: cell-based; details: in the presence and absence of R1881
# T3 construct: Full-length human wild type AR was cloned into pcDNA3.1 expression plasmid; expressed in transfected cells; host or cells: PC3
# T3 sequence (P10275 1-920 T878A): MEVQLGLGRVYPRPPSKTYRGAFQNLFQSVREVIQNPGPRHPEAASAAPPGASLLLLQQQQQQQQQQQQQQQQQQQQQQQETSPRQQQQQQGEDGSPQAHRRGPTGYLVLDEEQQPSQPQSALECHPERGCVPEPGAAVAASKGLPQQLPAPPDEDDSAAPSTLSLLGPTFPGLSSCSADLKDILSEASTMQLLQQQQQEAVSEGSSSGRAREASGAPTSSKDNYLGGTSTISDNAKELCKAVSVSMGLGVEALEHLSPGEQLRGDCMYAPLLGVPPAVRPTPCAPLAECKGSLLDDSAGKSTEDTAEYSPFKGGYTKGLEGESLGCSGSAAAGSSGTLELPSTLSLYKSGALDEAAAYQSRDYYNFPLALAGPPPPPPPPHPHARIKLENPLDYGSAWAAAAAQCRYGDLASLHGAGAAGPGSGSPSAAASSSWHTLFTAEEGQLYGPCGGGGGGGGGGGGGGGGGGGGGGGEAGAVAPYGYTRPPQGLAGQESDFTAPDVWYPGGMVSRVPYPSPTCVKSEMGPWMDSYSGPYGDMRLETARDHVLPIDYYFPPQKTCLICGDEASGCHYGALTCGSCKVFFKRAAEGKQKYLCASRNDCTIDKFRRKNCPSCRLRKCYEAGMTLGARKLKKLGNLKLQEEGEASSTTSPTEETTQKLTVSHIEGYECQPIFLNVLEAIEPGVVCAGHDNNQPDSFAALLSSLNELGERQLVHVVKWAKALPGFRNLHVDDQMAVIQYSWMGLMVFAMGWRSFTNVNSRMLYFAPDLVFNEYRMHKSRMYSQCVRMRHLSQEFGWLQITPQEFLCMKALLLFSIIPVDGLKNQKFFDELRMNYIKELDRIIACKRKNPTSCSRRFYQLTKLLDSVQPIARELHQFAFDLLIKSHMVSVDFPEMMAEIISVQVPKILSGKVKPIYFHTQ
# Description: Full-length human wild type AR was cloned into pcDNA3.1 expression plasmid (Invitrogen, Waltham, MA, USA) with a CMV promoter. The T878A mutant (T878A-AR) was generated with the Quikchange Mutagenesis Kit (Stratagene, San Diego, CA, USA) using hARWT plasmid as a template. Androgen-starved PC3 cells were seeded in 96-well plates (3000 cells/well) in RPMI 1640 + 5% CSS for 24 h followed by transfection with 50 ng of hARWT or hART878A along with 50 ng of ARR3tk-luciferase reporter construct (100 ng total plasmid DNA) and 0.3 µL/well TransIT20/20 transfection reagent (TT2020, Mirus, Madison, Wisconsin, WI, USA) for 48 h. […] Cell lysis was carried out with 60 µL 1X passive lysis buffer/well (Promega, Madison, Wisconsin, WI, USA). The luminescence from 20 µL of cell lysate and 50 µL of Luciferase assay reagent (Promega, Madison, Wisconsin, WI, USA) was recorded on a TECAN M200pro plate reader.
compound,measurement,setting,value
"COc1c(F)cccc1-c1csc(N2CCOCC2)n1 [VPC14368, 4-(4-(3-fluoro-2-methoxyphenyl)thiazol-2-yl)morpholine]",Androgen Displacement (Yes/No),[1],Yes
same,Direct binding to wild-type LBD by BLI,[2],confirmed at high concentrations and in a concentration-dependent manner
same,Concentration at which binding is seen (BLI),"[2]; Figure 2, 50-300 µM tested",above 100 µM
same,Concentration above which transcriptional activation of the T878A AR mutant is induced,[3],higher than 0.4 µM
